Where two headings read alike, the source gives them in different places.

One data set relates to HSV-2. As to the kind of experiment: Cellular binding experiment: pre-treatment of cells, compound removed, HSV-2 infection. The class given is cell-based. Conditions: data not shown.
For data set [1], the system named is HSV-1 wild-type KOS (reference strain). The note with it: HEL cells; HSV-1 KOS; reduction of virus-induced CPE by 50%.
Data set [2] deals with HIV-1 NPO3 (clinical isolate; X4). Conditions: PBMCs; NPO3, group M subtype E; p24 Ag ELISA. On the technique in general: In an ELISA, binding on a coated surface is turned into a signal by an enzyme label.
Data set [3] relates to HSV-2 TK^- BA19026589 (clinical isolate). The note with it: HEL cells, CPE.
A further data set concerns the target R5 HIV-1 gp120 ADA. As to the kind of experiment: Surface plasmon resonance. The format is binding. The note with it: SPR, immobilized gp120 ADA, 25°C. The method, then: Recombinant gp120 proteins from X4 HIV-1 IIIB strain (ImmunoDiagnostics Inc., Woburn, MA) and from R5 HIV-1 strains ADA and YU2 (ImmunoDiagnostics Inc.) were covalently immobilized on a CM5 sensor chip in 10 mM sodium acetate, pH 4.0, using standard amine coupling chemistry. The chip densities were 8200 resonance units (RUs), 10760 RUs and 9626 RUs, respectively. A reference flow cell was used as a control for non-specific binding and refractive index changes. All interaction studies were performed at 25°C on a Biacore T200 instrument (GE Healthcare, Uppsala, Sweden). The compounds LabyA1 and nisin were serially diluted in HBS-P (10 mM HEPES, 150 mM NaCl and 0,05% surfactant P20; pH 7.4) supplemented with 5% dimethyl sulfoxide (DMSO, Merck), and 10 mM CaCl2 covering a concentration range between 7.8 and 31.3 µM, by using two-fold dilution steps. Samples (in duplicate) were injected for 2 minutes at a flow rate of 45 µl/min and the dissociation was followed for 4 minutes. Several buffer blanks were used for double referencing. The CM5 sensor chip surface was regenerated with a single injection of 50 mM NaOH. A DMSO concentration series was included to eliminate the contribution of DMSO to the measured response. […] The experimental data were fit using the 1∶1 binding model Biacore T200 Evaluation software 1.0 to determine the binding kinetics.
A general note: SPR reads the build-up and loss of mass on a sensor chip optically.

Data set [4] deals with HSV-2 wild-type RV-124 (clinical isolate). Conditions: HEL cells; HSV-2 RV-124; CPE.
The target of the next data set is CXCR4 (Homo sapiens, UniProt P61073). Briefly: Intracellular calcium mobilization (FLIPR), U87.CD4.CXCR4 cells. The format is cell-based. On the set-up: expressed in transfected cells; host or cells: U87.CD4.CXCR4 (human astroglioma U87). The note with it: 9.6 µM. As for the experimental part: Calcium (Ca^2+) mobilization assays were performed by the use of a fluorometric imaging plate reader (FLIPR) (Molecular Devices, Sunnyvale, CA) as described previously. Briefly, U87.CD4.CCR5 or U87.CD4.CXCR4 cells were digested by trypsin and seeded in gelatine-coated black-wall 96-well microplates at 2×10^4 cells per well. The next day, the cells were loaded with the fluorescent calcium indicator Fluo-3 acetoxymethyl ester (Molecular Probes, Leiden, The Netherlands) at 4 µM for 45 min at 37°C. Cells were washed 3 times in assay buffer (Hanks’ balanced salt solution with 20 mM HEPES buffer and 0.2% bovine serum albumin, pH 7.4) and incubated for 10 min with Laby A1. The intracellular calcium mobilization induced by LD78β in U87.CD4.CCR5 cells or by SDF-1 in U87.CD4.CXCR4 cells was then measured at 37°C by monitoring the fluorescence as a function of time simultaneously in all the wells. In addition, potential intracellular calcium mobilization induced by Laby A1 was also investigated.
On the technique in general: Calcium flux is commonly read through the fluorescence of an indicator in the cells.

The subject of the next data set is HIV-1 NL4.3^AZTres. (X4). Conditions: read-out: EC50 (µM ± SEM); MT-4 cells; NL4.3 resistant to azidothymidine (AZT); MTS/PES.
Another data set has as its target T1, CD4 (Homo sapiens, UniProt P01730).
T1 construct: endogenous in cells; host or cells: SupT1 T cells (ATCC)
As to the kind of experiment: Anti-CD4 mAb binding on SupT1 cells (flow cytometry). Conditions: SupT1 T cells; 9.6 µM or 1.9 µM. As for the experimental part:
To determine the interaction of LabyA1 with CD4, SupT1 cells (100 µl; 3×10^6 cells/ml) were incubated for 20 min at 4°C with 9.6 µM, 1.9 µM or 0 µM LabyA1. After extensive washing with PBS/FCS2% (PBS supplemented with 2% FCS), anti-CD4-PE conjugated mAbs RPA-T4 (eBioscience, Vienna, Austria), MT441 (Ancell, Enzo Life sciences) and OKT-4 (eBioscience) were added for 30 min at 4°C. For aspecific background staining, cells were incubated with SimulTest™ Control (IgGγ1-FITC/IgGγ2a-PE) (BD Biosciences). After washing, and fixation with 1% formaldehyde solution, samples were analyzed using the FACSCalibur and CellQuest software (BD Biosciences). The same protocol was applied for anti-CXCR4 evaluation using the fluorochrome conjugated mAbs 12G5-PE and 2B11-FITC (both BD Biosciences).

For data set [5], the system named is HIV-1 UG270 (clinical isolate; X4). Conditions: PBMCs; UG270, group M subtype D; p24 Ag ELISA.
Another data set relates to HIV-1 R5 BaL in PBMCs. As to the kind of experiment: Susceptibility of pre-treated PBMCs for HIV-1 infection. The note with it: washed, HIV-1 BaL, day 7.
Data set [6] deals with HSV-1 TK^- RV-179 (clinical isolate). Conditions: HEL cells, CPE.
The subject of another data set is HSV-1 wild-type. Conditions: read-out: Median EC50; median over HSV-1 wild-type strains; HEL cells.
Data set [7] has as its system HSV-1 wild-type C559142 (clinical isolate). Conditions: HEL cells; HSV-1 C559142; CPE.
Data set [8] has as its system HIV-1 NL4.3 binding to CD4+ SupT1 cells. The class given is cell-based. The note with it: LabyA1 9.6 µM, sCD4 10 µg/ml, AMD3100 12 µM; no compound MFI 9.8, background 3.9.
Data set [9] has as its system HIV-1 US2 (clinical isolate; R5/X4). Conditions: PBMCs; US2, group M subtype B; p24 Ag ELISA.

CXCR4, sequence (P61073 whole entry): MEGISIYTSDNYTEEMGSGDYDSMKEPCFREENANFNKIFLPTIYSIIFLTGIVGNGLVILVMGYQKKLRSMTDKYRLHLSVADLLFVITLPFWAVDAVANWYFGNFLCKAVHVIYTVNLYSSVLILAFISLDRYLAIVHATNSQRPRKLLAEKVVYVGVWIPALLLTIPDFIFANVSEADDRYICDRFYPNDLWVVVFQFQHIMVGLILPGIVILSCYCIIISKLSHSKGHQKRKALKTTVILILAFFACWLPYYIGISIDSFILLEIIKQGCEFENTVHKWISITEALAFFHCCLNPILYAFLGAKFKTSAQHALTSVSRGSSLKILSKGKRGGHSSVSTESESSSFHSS
Method for HIV-1 R5 BaL in PBMCs: The next day, cells were collected, extensively washed in culture medium, resuspended (5×10^5 cells/450 µl) and seeded in a 48-well plate. Immediately afterwards, 50 µl of HIV-1 R5 strain BaL (500 pg/well) was added and cells were cultures for 7 days. Supernatant was collected 7 days post virus infection and viral replication was determined by p24 HIV-1 Ag ELISA.

`C/C=C1\NC(=O)[C@H](Cc2ccccc2)NC(=O)[C@@H]2CCCN2C(=O)[C@H](C(C)C)NC(=O)[C@H](Cc2c[nH]c3ccccc23)NC(=O)[C@]23CSC[C@H](NC1=O)C(=O)N[C@H](C(=O)O)CSSC[C@H](NC(=O)[C@@H]1CSC[C@]4(C[C@H](N)C(=O)N[C@@H](CC(N)=O)C(=O)N[C@@H](C)C(=O)N4)C(=O)N[C@@H](C(C)C)C(=O)N[C@@H](Cc4c[nH]c5ccccc45)C(=O)N[C@@H](CCC(=O)O)C(=O)N1)C(=O)N[C@@H](C2)C(=O)N[C@@H]([C@@H](C)O)C(=O)NCC(=O)N3` [LabyA1, labyrinthopeptin A1]: the “inhibition of HSV-2 replication after pre-treatment of cells for 1 h and removal of compound” value in the data set on HSV-2 is on record as “lost its ability to inhibit HSV-2 replication”. The EC50 (commonly the concentration that produces a half-maximal response) in data set [1] is 560 ± 50 nM; in data set [2] it was 1600 ± 300 nM; in [3], 290 ± 100 nM; with HIV-1 clinical isolates (read-out: EC50 range, range over 9 HIV-1 clinical isolates in PBMCs), 700 to 1900 nM; with HIV-1 clinical isolates (read-out: Median EC50, median over 9 HIV-1 clinical isolates in PBMCs) it was 1000 nM; in data set [4], 1400 ± 400 nM. The EC50 in the data set with HIV-1 NL4.3^AZTres. (X4) came to 1.1 ± 0.1 µM; in [5] it was 1500 ± 100 nM; in data set [6], 1900 ± 300 nM; in the data set with HSV-1 wild-type, 1600 nM; in data set [7] it was 450 ± 20 nM; in data set [9], 700 ± 190 nM. The Kd (commonly the concentration at which binding is half-saturated) on R5 HIV-1 gp120 ADA worked out at 12300 ± 2200 nM. In addition, the “induction of calcium signaling by compound itself” value on CXCR4 is “could not induce by itself calcium signaling”. Also, the “inhibition of SDF-1α (CXCL12)-induced intracellular calcium flux” value at CXCR4 (100 ng/ml SDF-1α) is listed as “could also not inhibit the intracellular calcium flux”. Besides, the “effect on binding of anti-CD4 mAbs RPA-T4, MT441 and OKT4” value at CD4 is given as “no effect”. Also, the “p24 HIV-1 Ag production after pre-treatment” value in the data set with HIV-1 R5 BaL in PBMCs (PBMCs pre-treated 24 h with 1.9 µM) was 12.26 ± 4.61 ng/mL; in the data set with HIV-1 R5 BaL in PBMCs (PBMCs pre-treated 24 h with 9.6 µM, no compound 12.69±4.83) it was 15.37 ± 3.75 ng/mL. Moreover, the “virus binding, mean fluorescence intensity (MFI) of anti-gp120 (9205) mAb” value in [8] turned out to be 9.2.

Values taken from publication PMC3665789 (PLoS ONE, 2013).
